Laboratory results from patent publication US20150119391A1, “ANTI-TUMORAL COMPOSITION COMPRISING THE COMPOUND 1-(6--1,3-BENZOTHIAZOL-2-YL)-3-(2-MORPHOLIN-4-YLETHYL)UREA” (SANOFI, priority 2012, published 2015).
≈ marks a conversion by molar mass, not a printed value. Where two headings read alike, the source gives them in different places.

Key:
[1] = stability to steam sterilization; type: physicochemical
Description: The concentrated pharmaceutical composition is prepared by usual methods for the preparation of aqueous liquid pharmaceutical composition. Generally, the process comprises a sterilization step, which is typically carried out by sterilizing filtration followed by aseptic filling.

[2] = tested on: human Met-driven tumor cell lines; assay: in vitro anti-proliferative activity; type: cell-based; settings: (nM), Met-driven tumor cell lines exclusively
[3] = Biopharmaceutics Classification System class / permeability characteristics; type: physicochemical
solubility in water = type: physicochemical
[4] = tested on: human Met-amplified models; assay: cellular anti-tumor activity as a single agent; type: cell-based
pKa (weak base) = type: physicochemical

Q: What does the source list for O=C(NCCN1CCOCC1)Nc1nc2ccc(Sc3nnc4ccc(-c5ccc(F)cc5)nn34)cc2s1 [Compound A, 1-(6-{[6-(4-fluorophenyl)[1,2,4]triazolo[4,3-b]pyridazin-3-yl]sulfanyl}-1,3-benzothiazol-2-yl)-3-(2-morpholin-4-ylethyl)urea]?
A: chemical stability on steam sterilization [1]: chemical degradation; anti-proliferative activity [2]: highly potent; permeability characteristics [3]: poor; solubility (solubility in water): < 0.1 µg/mL; solubility (solubility in water; aqueous buffer, above pH 5): < 0.1 µg/mL; solubility (solubility in water; pH 1, simulated gastric fluid): ~90 µg/mL (≈ 163 µM); solubility (solubility in water; pH 3, aqueous buffer): ~20 µg/mL (≈ 36.3 µM); cellular anti-tumor activity [4]: highly potent; pKa (pKa (weak base)): 6.4
